Results taken from ChEMBL document CHEMBL1153935, “4,4'-Dihydroxy-trans-stilbene, a resveratrol analogue, exhibited enhanced antioxidant activity and cytotoxicity” (Bioorg Med Chem, 2009).
Active and inactive are the calls of the source. No cut-off for these calls is given here.

How the values were obtained:
HL-60 [1] = experiment: Cytotoxicity against human HL60 cells after 48 hrs by MTT assay; type: functional, cell-based; conditions: for IC50: HL-60, 48 h
Erythrocyte [2] = experiment: Inhibition of Fe(2+)/ascorbate-induced lipid peroxidation in human erythrocyte ghosts assessed as inhibition of malondialdehyde formation at 1 to 5 uM; type: functional, cell-based
Erythrocyte [3] = experiment: Inhibition of Fe(2+)/ascorbate-induced lipid peroxidation in human erythrocyte ghosts assessed as inhibition of malondialdehyde formation at 5 uM; type: functional, cell-based
Erythrocyte [4] = experiment: Inhibition of Fe(2+)/ascorbate-induced lipid peroxidation in human erythrocyte ghosts assessed as increase in inhibition period; type: functional, cell-based
Erythrocyte [5] = experiment: Inhibition of Fe(2+)/ascorbate-induced lipid peroxidation in human erythrocyte ghosts assessed as inhibition of malondialdehyde formation per mg of protein at 1 uM after 30 mins; type: functional
Erythrocyte [6] = experiment: Inhibition of Fe(2+)/ascorbate-induced lipid peroxidation in human erythrocyte ghosts assessed as inhibition of malondialdehyde formation per mg of protein at 2 uM after 30 mins; type: functional
Erythrocyte [7] = experiment: Inhibition of Fe(2+)/ascorbate-induced lipid peroxidation in human erythrocyte ghosts assessed as inhibition of malondialdehyde formation per mg of protein at 3 uM after 30 mins; type: functional
HL-60 [8] = experiment: Cytotoxicity against human HL60 cells at 10 uM after 48 hrs by MTT assay; type: functional
HL-60 [9] = experiment: Cytotoxicity against human HL60 cells at 20 uM after 48 hrs by MTT assay; type: functional
HL-60 [10] = experiment: Cytotoxicity against human HL60 cells at 30 uM after 48 hrs by MTT assay; type: functional

Structure (SMILES)	IC50 (HL-60 [1])	Activity (Erythrocyte [2])	Activity (Erythrocyte [3])	Activity (Erythrocyte [4])	Activity (Erythrocyte [5])	Activity (Erythrocyte [6])	Activity (Erythrocyte [7])	Activity (HL-60 [1])	Activity (HL-60 [8])	Activity (HL-60 [9])	Activity (HL-60 [10])
COc1cc([C@@H]2c3cc4c(cc3[C@@H](O[C@@H]3O[C@@H]5CO[C@@H](C)O[C@H]5[C@H](O)[C@H]3O)[C@H]3COC(=O)[C@H]23)OCO4)cc(OC)c1O [ETOPOSIDE]	3.3 µM	–	–	–	–	–	–	–	–	–	–
Oc1ccc(/C=C/c2cc(O)cc(O)c2)cc1 [RESVERATROL]	36.3 µM	Dose-dependent effect	Active	Dose-dependent effect	1.33 nmol	0.61 nmol	0.18 nmol	Dose-dependent effect	83%	72%	43%
Oc1ccc(/C=C/c2ccc(O)cc2)cc1 [TRANS-4,4'-DIHYDROXYSTILBENE]	6.5 µM	–	–	–	0.8 nmol	0.45 nmol	0.17 nmol	–	–	–	–
